Test results reported in patent US20030032579A1, “Therapeutic use of selective PDE10 inhibitors” (Pfizer Inc., priority 2001, published 2003).
Values joined by “and” are separate entries in the source; they are usually repeats but may differ in a detail not shown here. Equal entries are not always repeated.

Assays:
[1] = system: primary cultures of rat striatal neurons (medium spiny neurons); assay: cGMP accumulation in SNP-stimulated striatal cultures (Example 2); assay type: cell-based; conditions: for cGMP EC200: SNP-stimulated rat striatal cultures, mean ± S.E.M.
Protocol: (§1) The striatal cultures were prepared as previously described (Ventimiglia et al., Eur. J. Neurosci. 7: 213-222, 1995). Briefly, striata (caudate nucleus and putamen) are dissected from E17 rats, were dissociated to produce a single cell suspension and plated at a density of 5×10^4 neurons/well in multiwell plates coated with poly-L-ornithine/laminin. The cells were plated in Neurobasal medium with B27 supplements and BDNF (100 ng/mL). Experiments were typically performed after 4 days in vitro. Medium spiny neurons comprise the majority of cells in these cultures (50 to 60%, as confirmed by GABA immunoreactivity).
(§2) The striatal cells were exposed to phosphodiesterase inhibitors and incubated for twenty minutes at 37 degrees Celsius. When measuring cGMP, the neurons were stimulated with sodium nitroprusside, a nitric oxide source for two minutes following the 20-minute incubation with compound. When measuring cAMP, the neurons were stimulated with forskolin, an activator of adenylate cyclase for the duration of the twenty minute compound incubation. The cells were lysed using a 9:1 combination of cAMP SPA direct screening Assay Buffer (0.05M acetate with 0.01% sodium azide) and Buffer A (133 mg/mL dodecyltrimethylammonium bromide) and the lysates were frozen on dry ice. A cGMP [[…]] or cAMP [[…]] scintillation proximity assay (SPA) system (Amersham code RPA 540 and RPA 559, respectively) was used to detect the concentration of the respective cyclic nucleotide in the cell lysate.
(§3) We therefore examined the effects of the compound under conditions in which cAMP or cGMP synthesis was stimulated with forskolin or the NO donor sodium nitroprusside (SNP), respectively.

[2] = system: primary cultures of rat striatal neurons (medium spiny neurons); assay: cAMP accumulation in forskolin-stimulated striatal cultures (Example 2); assay type: cell-based; conditions: for cAMP EC200: forskolin-stimulated rat striatal cultures, mean ± S.E.M.; for cAMP/cGMP (ratio of EC200 values): rat striatal cultures, Example 2
Protocol: as §1, §2, §3

PDE9 = target: T1, PDE9 (Homo sapiens, UniProt O76083); assay: PDE inhibition, SPA cyclic nucleotide hydrolysis assay; assay type: biochemical
T1 construct: made in house; host or cells: SF9 cells
T1 sequence (O76083 whole entry): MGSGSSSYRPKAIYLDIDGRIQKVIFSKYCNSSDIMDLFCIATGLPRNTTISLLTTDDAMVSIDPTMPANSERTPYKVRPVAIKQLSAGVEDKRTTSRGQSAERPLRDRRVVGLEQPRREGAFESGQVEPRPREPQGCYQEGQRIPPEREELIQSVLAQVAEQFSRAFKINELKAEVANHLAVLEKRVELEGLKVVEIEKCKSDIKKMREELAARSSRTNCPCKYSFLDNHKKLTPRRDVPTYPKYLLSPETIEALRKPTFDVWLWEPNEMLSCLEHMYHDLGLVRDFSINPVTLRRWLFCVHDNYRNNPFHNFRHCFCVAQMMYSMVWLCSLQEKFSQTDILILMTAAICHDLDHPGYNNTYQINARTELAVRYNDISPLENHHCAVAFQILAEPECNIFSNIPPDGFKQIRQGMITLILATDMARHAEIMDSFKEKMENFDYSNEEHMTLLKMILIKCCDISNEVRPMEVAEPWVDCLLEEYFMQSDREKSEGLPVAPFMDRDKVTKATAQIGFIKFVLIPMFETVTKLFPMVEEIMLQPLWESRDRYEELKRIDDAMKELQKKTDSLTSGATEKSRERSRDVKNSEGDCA

PDE7 = system: T2, PDE7; assay: as above; assay type: biochemical, human; conditions: substrate at 1/3 Km
T2 construct: other: substrate at 1/3 Km
Text: (§4) PDEs 2, 3 and 5, isozymes, including human PDEs, can, for example, be prepared from corpus cavernosum; PDE1, isozymes including human, from cardiac ventricle; and PDE4, isozymes, including human, from skeletal muscle. PDE6 can be prepared, for example, from canine retina. Description of enzyme preparation from native tissue is described, for example, by Boolell, M. et al., Int. J. Impotence Research 8:7-52, 1996, incorporated herein by reference.
(§5) PDEs 7-11 can similarly be prepared from native tissue. Isozymes from the PDEs 7-9 and 11 families can alternatively be generated from full length human recombinant clones transfected into, for example, SF9 cells as described in Fisher, D. A., et al., Biochem. Biophys. Res. Comm. 246, 570-577, 1998; Soderling, S. H. et al., PNAS 96: 7071-7076, 1999; Fisher, D. A. et al., J. Biol. Chem. 273, 15559-15564, 1998b; and Fawcett, L., et al., PNAS 97: 3702-3707, 2000; respectively. PDE10 can also be generated from a rat recombinant clone transfected into SF9 cells (Fujishige et al., European Journal of Biochemistry, Vol. 266, 1118-1127 (1999)). The enzymes are then prepared by FPLC from the soluble fraction of cell lysates as described for PDE6. The aforementioned references are incorporated in their entireties herein by reference. […]

PDE1 = system: T3, PDE1; assay: as above; assay type: biochemical, human; conditions: substrate at 1/3 Km
T3 construct: other: substrate at 1/3 Km
Text: as §4, §5

[3] = system: primary cultures of rat striatal neurons (medium spiny neurons); assay: cAMP accumulation in forskolin-stimulated striatal cultures (Example 2); assay type: cell-based; conditions: compound alone, no stimulus
Sprague-Dawley rats = assay: Locomotor activity (shuttle box crossovers), PCP- or amphetamine-stimulated; assay type: in vivo, rat
Protocol: Adult, male, Sprague-Dawley rats (250-300 g) were obtained from Charles River (Wilmington, Mass.). Locomotor activity was assessed using crossover behavior in commercially available shuttle boxes (Coulbourn Instruments, Allentown, Pa.). Data was collected in 5 minute intervals for 1 hour after drug administration. Animals received either vehicle (5% DMSO, 5% Emulphor, 90% Saline) phencyclidine (PCP, Sigma Chem. Co.) or amphetamine Sulfate (RBI) followed immediately by either vehicle or test compound. Statistical analysis was performed using the Student's t-test.

male CD rats = assay: Catalepsy (bar test), alone and with haloperidol; assay type: in vivo, rat; conditions: s.c.; for catalepsy when administered alone: 30 min after dosing, papaverine up to 32 mg/kg
Text: This animal model is used to analyze the effects of compounds on basal ganglia output. […] For some experiments, this was immediately followed by haloperidol. Thirty minutes after drug administration(s), the degree of catalepsy was quantified by placing the animals forepaws on an elevated (10 cm) bar (1 cm diameter) and determining the latency to remove both forepaws from the bar with a latency cutoff of 30 sec. Latencies were ranked within each treatment group for comparison by a Kruskall-Wallace analysis of variance. Post hoc analysis was by the Mann Whitney U test.

PDE11 = target: T4, PDE11 (Homo sapiens, UniProt Q9HCR9); assay: PDE inhibition, SPA cyclic nucleotide hydrolysis assay; assay type: biochemical
T4 construct: made in house; host or cells: SF9 cells
T4 sequence (Q9HCR9 445-933): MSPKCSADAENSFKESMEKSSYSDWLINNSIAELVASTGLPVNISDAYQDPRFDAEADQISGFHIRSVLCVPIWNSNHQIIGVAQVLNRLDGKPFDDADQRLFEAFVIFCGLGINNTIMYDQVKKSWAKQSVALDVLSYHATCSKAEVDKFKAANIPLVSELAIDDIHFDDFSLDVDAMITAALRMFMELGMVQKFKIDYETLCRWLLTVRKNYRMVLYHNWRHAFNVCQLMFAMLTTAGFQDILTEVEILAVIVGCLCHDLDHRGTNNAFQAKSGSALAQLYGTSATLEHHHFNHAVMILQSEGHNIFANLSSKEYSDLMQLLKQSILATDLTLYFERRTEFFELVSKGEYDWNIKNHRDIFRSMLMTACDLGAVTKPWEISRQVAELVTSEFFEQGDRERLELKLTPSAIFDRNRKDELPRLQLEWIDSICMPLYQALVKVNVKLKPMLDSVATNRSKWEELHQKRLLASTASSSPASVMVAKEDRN

PDE10 = target: T5, PDE10 (Rattus norvegicus, UniProt Q9QYJ6); assay: as above; assay type: biochemical
T5 construct: made in house; host or cells: SF9 cells
T5 sequence (Q9QYJ6 1-794): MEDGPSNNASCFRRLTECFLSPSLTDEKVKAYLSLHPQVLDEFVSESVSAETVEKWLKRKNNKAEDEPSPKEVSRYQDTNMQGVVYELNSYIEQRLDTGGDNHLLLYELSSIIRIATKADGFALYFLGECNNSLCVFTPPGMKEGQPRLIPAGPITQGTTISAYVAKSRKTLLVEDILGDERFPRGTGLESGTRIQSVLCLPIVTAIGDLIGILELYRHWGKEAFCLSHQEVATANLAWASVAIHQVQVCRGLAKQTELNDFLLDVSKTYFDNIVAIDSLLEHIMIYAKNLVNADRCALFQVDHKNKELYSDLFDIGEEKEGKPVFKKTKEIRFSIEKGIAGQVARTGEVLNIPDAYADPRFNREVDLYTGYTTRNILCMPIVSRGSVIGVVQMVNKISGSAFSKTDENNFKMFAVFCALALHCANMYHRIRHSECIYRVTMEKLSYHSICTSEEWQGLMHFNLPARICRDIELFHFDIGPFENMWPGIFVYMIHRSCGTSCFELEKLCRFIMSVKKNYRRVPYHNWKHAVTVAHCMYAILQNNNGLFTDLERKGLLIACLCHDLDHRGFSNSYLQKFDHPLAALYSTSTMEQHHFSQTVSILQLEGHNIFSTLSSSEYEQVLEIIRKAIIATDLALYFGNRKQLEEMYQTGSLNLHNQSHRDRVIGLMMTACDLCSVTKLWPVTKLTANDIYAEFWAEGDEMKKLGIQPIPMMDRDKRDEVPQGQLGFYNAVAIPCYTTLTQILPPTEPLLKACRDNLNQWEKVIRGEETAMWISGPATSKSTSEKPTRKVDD

[4] = system: primary cultures of rat striatal neurons (medium spiny neurons); assay: cGMP accumulation in SNP-stimulated striatal cultures (Example 2); assay type: cell-based; conditions: compound alone, no stimulus
medium spiny neurons [5] = assay: cGMP accumulation in SNAP-stimulated medium spiny neuron culture (Example 5); assay type: cell-based, rat
Protocol: (§6) Medium spiny neuron cultures were prepared as discussed in Example 2 from striata from E17 or E18 rat embryos. The striata were digested with trypsin and the dissociated cells plated on poly-L-omithine/laminin coated plates in Neurobasal medium containing B27 supplement. For assays of cyclic nucleotide formation and CREB phosphorylation, neurons are also supplemented with 50 ng/ml BDNF and used at 6 DIV. At this time, approximately 90% of the cells are of neuronal morphology and 50% stain positively for GABA.
(§7) The PDE inhibitors were differentiated by the potencies with which they potentiated the increase in cAMP versus cGMP (Table 3).

medium spiny neurons [6] = assay: CREB phosphorylation in medium spiny neurons, Western blot; assay type: cell-based, rat; conditions: Western blotting
Protocol: as §6
cAMP and cGMP activate protein kinases PKA and PKG, respectively. Both kinases are capable of phosphorylating the transcription regulator CREB. We examined the effects of the selective PDE inhibitors in Table 3 on phosphorylation of CREB as a downstream event in the cyclic nucleotide signaling cascade.

medium spiny neurons [7] = assay: cAMP accumulation in forskolin-stimulated medium spiny neuron culture (Example 5); assay type: cell-based, rat
Protocol: as §6, §7

medium spiny neurons [8] = assay: Differentiation of medium spiny neurons to GABA phenotype, Array Scan; assay type: cell-based, rat; conditions: added at plating, read at 6 DIV
Protocol: The transcriptional events activated following CREB phosphorylation are involved in the survival and differentiation of neurons. We investigated whether the PDE inhibitors in Table 3 effect the survival and differentiation of the medium spiny neurons. These experiments were conducted using a protocol used by Ventimiglia et al. (see Ventimiglia et al., 1995, supra) to assay the effects of BDNF on these processes in medium spiny neurons. Specifically, the PDE inhibitors were added to the medium spiny neuron culture medium at the time of plating, and then at 6 DIV various parameters related to neuronal survival and differentiation were quantified using the Array Scan System from Cellomics, Inc (Pittsburgh, Pa., USA).
Blue-nuclei; Green-neuron; Red-neuron staining positively for GABA.

`CC(C)Cn1c(=O)n(C)c(=O)c2[nH]cnc21` [IBMX] was tested, and the “cGMP EC200” value [1] was 19 μM and 19.5 (1) μM, the “cAMP EC200” value [2] was 30 μM and 30.2 (2) μM and the “cAMP/cGMP (ratio of EC200 values)” value [2] was 1.5.

With `COc1ccc(Cc2nccc3cc(OC)c(OC)cc23)cc1OC` [Papaverine, 1-[(3,4-dimethoxyphenyl)methyl]-6,7-dimethoxyisoquinoline] the IC50 (PDE9) was 400 µM, the IC50 (PDE7) was 27 µM and the IC50 (PDE1) was 37 µM. The “change in basal level of cAMP” value [3] was “did not produce measurable changes”, the “cGMP EC200” value [1] was 11.7 μM and 11.7 ± 8.2 (4) μM and the “maximal elevation of cGMP over cultures stimulated with SNP alone” value ([1]; at 100 μM) was 5 fold. For the same molecule, the “locomotor activity, compound alone” value (Sprague-Dawley rats; 32 mg/kg, i.p., 60 min) was “small decrease in locomotor activity”, the “amphetamine stimulated locomotion, second experiment” value (Sprague-Dawley rats; amphetamine 1 mg/kg s.c., 30 minutes) was “effectively inhibited” and the “locomotor activity stimulated by phencyclidine” value (Sprague-Dawley rats; papaverine 32 mg/kg i.p., PCP […] i.p., 60 min) was “significant reduction in the locomotor activity”. The “locomotor activity stimulated by amphetamine” value (Sprague-Dawley rats; papaverine 32 mg/kg i.p., amphetamine 1 mg/kg i.p., 60 min) was “without effecting”, the “cAMP EC200” value [2] was 38.3 ± 11.4 (4) μM and the “catalepsy when administered alone” value (male CD rats) was “did not alone induce catalepsy”. For the same molecule, the “minimum effective dose for potentiation of haloperidol-induced catalepsy” value (male CD rats; haloperidol […]) was 3.2 mg/kg, the IC50 (PDE11) was 11 µM and the IC50 (PDE10) was 0.018 µM. For the same molecule, the “change in basal level of cGMP” value [4] was “did not produce measurable changes”.

`COc1ccc(C2CNC(=O)C2)cc1OC1CCCC1` (stereo not drawn) [Rolipram] was tested, and the “cGMP EC200” value [1] was 29.2 ± 10.3 (3) μM, the “fold higher concentration to double cGMP accumulation than cAMP” value ([1]; relative to cAMP EC200) was 10 fold and the “cAMP EC200” value [2] was 2.5 ± 2.0 (3) μM. The “cAMP EC200” value ([2]; listed as rolipram) was 2.5 µM, the “cAMP/cGMP (ratio of EC200 values)” value [2] was 0.09 and the “effect on accumulation of cGMP stimulated with SNAP” value (medium spiny neurons [5]; FIG. 4) was “potentiate the increase”. For the same molecule, the “cGMP EC200” value (medium spiny neurons [5]; SNAP-stimulated medium spiny neurons, 6 DIV) was 71.1 ± 9.9 µM, the “change in cGMP level in the absence of a stimulus” value (medium spiny neurons [5]; no stimulus) was “no detectable change” and the “rank order of efficacy in increasing CREB phosphorylation” value (medium spiny neurons [6]) was “forskolin>selective PDE 10 inhibitor>rolipram”. The CREB phosphorylation (medium spiny neurons [6]; compound without other stimuli) was “increased CREB phosphorylation”, the “effect on accumulation of cAMP stimulated with forskolin” value (medium spiny neurons [7]; FIG. 3) was “potentiate the increase” and the “cAMP EC200” value (medium spiny neurons [7]; forskolin-stimulated medium spiny neurons, 6 DIV) was 2.0 ± 0.2 µM. The “cAMP/cGMP (ratio of EC200 values)” value (medium spiny neurons [7]; medium spiny neurons, Example 5) was 0.03, the “change in cAMP level in the absence of a stimulus” value (medium spiny neurons [7]; no stimulus) was “no detectable change” and the “number of GABAergic neurons” value (medium spiny neurons [8]) was “no effect”.

For `CCCOc1ccccc1-c1nc2nn[nH]c2c(=O)[nH]1` [Zaprinast], the “cGMP EC200” value [1] was 98.3 ± 10.3 (3) μM, the “cAMP EC200” value [2] was >100 (3) μM and the “cAMP/cGMP (ratio of EC200 values)” value [2] was 1.

For `O=C(CCCN1CCC(O)(c2ccc(Cl)cc2)CC1)c1ccc(F)cc1` [haloperidol], the “maximally effective dose for catalepsy” value (male CD rats) was 1 mg/kg and the “catalepsy when administered alone” value (male CD rats) was “robust catalepsy”.
